ChEMBL document CHEMBL5506042, “Discovery of the Clinical Candidate IDOR-1117-2520: A Potent and Selective Antagonist of CCR6 for Autoimmune Diseases” (J Med Chem, 2024)

Experiments:
[1] = Intrinsic clearance in human liver microsomes at 1 uM measured for 15 mins in presence of NADPH regenerating system measured per mg protein by LC-MS/MS analysis; format: ADME, Microsome; conditions: read-out: CLH
[2] = target: T1, C-C chemokine receptor type 6 (Homo sapiens, UniProt P51684); assay: Antagonist activity at human CCR6 expressed in HEK293 cells assessed as inhibition of CCL20-stimulated intracellular calcium mobilization by Fluo-8-AM based FLIPR analysis
T1 sequence (P51684 whole entry): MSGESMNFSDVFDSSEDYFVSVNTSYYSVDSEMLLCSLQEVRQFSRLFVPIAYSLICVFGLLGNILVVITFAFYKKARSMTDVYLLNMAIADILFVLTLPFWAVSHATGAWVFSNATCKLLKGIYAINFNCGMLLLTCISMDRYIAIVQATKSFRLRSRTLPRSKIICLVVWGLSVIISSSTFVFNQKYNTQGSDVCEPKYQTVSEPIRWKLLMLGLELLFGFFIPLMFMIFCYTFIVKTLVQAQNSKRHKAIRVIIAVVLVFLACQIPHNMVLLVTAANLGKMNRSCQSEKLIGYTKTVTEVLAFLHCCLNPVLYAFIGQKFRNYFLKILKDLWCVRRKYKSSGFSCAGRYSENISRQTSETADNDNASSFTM

[3] = target: Voltage-gated inwardly rectifying potassium channel KCNH2 (Homo sapiens, UniProt Q12809); assay: Inhibition of hERG expressed in CHO cells assessed as inhibition of channel current at holding potential of -80 mV by QPatch assay
[4] = Drug metabolism in human liver microsomes assessed as dGSH trapping by measuring reactive metabolite formation at 10 uM measured after 60 mins in presence of dGSH and NADPH regenerating system by LC-MS/MS analysis; format: ADME, Microsome; conditions: 1 h
[5] = Cytotoxicity against human HepG2 cells assessed as reduction in cell viability incubated for 72 hrs by CellTiter-Glo assay
[6] = Dissociation constant, pKa of the compound by potentiometric titration based UV-Vis spectrophotometry
[7] = Lipophilicity, LogD of the compound in 1-Octanol/PBS at pH 7.4 by miniaturized shake flask method
[8] = system: HepaRG; assay: Cytotoxicity against human HepaRG cells assessed as leakage of intracellular LDH at 100 uM incubated for 24 hrs by spectrophotometry; format: toxicity, cell-based

Sequence of Voltage-gated inwardly rectifying potassium channel KCNH2 (Q12809 whole entry): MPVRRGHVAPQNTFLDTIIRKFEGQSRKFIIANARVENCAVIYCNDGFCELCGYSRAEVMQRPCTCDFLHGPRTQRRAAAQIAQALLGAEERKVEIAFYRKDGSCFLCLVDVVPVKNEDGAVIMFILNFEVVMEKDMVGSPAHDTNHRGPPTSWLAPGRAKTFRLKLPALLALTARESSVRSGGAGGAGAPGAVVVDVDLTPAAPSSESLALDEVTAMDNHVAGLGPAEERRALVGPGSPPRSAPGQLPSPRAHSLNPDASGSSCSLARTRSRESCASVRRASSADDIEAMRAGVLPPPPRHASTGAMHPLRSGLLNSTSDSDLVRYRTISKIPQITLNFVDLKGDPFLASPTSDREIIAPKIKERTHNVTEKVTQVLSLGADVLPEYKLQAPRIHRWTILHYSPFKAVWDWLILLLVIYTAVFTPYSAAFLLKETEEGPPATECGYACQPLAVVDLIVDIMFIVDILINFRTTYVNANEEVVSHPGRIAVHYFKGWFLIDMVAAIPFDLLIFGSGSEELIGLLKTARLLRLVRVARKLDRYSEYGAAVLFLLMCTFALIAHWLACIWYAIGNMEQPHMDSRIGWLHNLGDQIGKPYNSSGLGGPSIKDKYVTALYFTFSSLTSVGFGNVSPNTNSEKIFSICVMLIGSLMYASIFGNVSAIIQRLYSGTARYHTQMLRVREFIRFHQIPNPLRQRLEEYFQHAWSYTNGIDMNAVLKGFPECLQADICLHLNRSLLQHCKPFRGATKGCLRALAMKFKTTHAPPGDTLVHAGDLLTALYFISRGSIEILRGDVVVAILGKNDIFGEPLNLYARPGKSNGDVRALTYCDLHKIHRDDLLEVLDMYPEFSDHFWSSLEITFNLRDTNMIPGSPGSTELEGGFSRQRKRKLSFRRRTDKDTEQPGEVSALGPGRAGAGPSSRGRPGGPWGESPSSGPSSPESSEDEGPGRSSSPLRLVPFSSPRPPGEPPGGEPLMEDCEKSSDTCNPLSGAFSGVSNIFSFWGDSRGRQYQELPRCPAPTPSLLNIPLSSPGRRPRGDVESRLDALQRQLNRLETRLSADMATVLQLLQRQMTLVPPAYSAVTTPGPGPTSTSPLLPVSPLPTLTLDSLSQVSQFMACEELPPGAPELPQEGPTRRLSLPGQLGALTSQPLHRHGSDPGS

CC(C)c1ccc([C@](O)(c2cccc(-c3noc(C(C)(O)C(F)(F)F)n3)c2)C2(C)CN(C)C2)cc1 (stereo partly specified)
microsomal CLint at […], 1 µM [1]: 15 µL/min/mg

CC(=O)N1CC(C)(C(O)(c2ccccc2)c2ccc(OC(F)(F)F)cc2)C1 (stereo unspecified)
IC50 [2]: > 20 µM
IC50 [3]: > 20 µM

CC(C)c1ccc([C@](O)(c2cncc(N3CC[C@H](C(C)(C)O)C3)c2)C2(C)CN(C)C2)cc1
Drug metabolism [4]: < 100 pmol/mg/h

CC(C)c1ccc([C@](O)(c2cncc(N3CCCC3)c2)C2(C)CN(C)C2)cc1
Drug metabolism [4]: 162 pmol/mg/h

CC(C)c1ccc([C@](O)(c2cncc(N3CC[C@H](O)C3)c2)C2(C)CN(C)C2)cc1
Drug metabolism [4]: 504 pmol/mg/h

CC(C)c1ccc([C@](O)(c2cccc(-c3noc(C4CCOCC4)n3)c2)C2(C)CN(C)C2)cc1
microsomal CLint at […], 1 µM [1]: 26 µL/min/mg
Drug metabolism [4]: 167 pmol/mg/h

CC(C)c1ccc([C@](O)(c2cncc(N3CCCC3=O)c2)C2(C)CN(C)C2)cc1
Drug metabolism [4]: < 100 pmol/mg/h

CC(C)c1ccc([C@](O)(c2cncc(N3CC[C@](C)(O)C3)c2)C2(C)CN(C)C2)cc1
Drug metabolism [4]: 392 pmol/mg/h

CC(C)c1ccc([C@](O)(c2cncc(N3C[C@@H](F)[C@@H](F)C3)c2)C2(C)CN(C)C2)cc1
Drug metabolism [4]: < 100 pmol/mg/h

CC(C)c1ccc([C@](O)(c2cnnc(N3CCCC3)c2)C2(C)CN(C)C2)cc1
microsomal CLint at […], 1 µM [1]: 475 µL/min/mg
Drug metabolism [4]: 323 pmol/mg/h

CC(C)c1ccc([C@](O)(c2cccc(-c3noc(CC(C)(C)O)n3)c2)C2(C)CN(C)C2)cc1
microsomal CLint at […], 1 µM [1]: 20 µL/min/mg

CN1CCC(C)(C(O)(c2ccccc2)c2ccc(OC(F)(F)F)cc2)C1 (stereo unspecified)
IC50 [2]: 1.44 µM

CCCC1(C(O)(c2ccccc2)c2ccc(OC(F)(F)F)cc2)CN(C)C1 (stereo unspecified)
IC50 [2]: > 20 µM

CC(C)c1ccc([C@](O)(c2cncc(N3CC4CC(C3)O4)c2)C2(C)CN(C)C2)cc1
microsomal CLint at […], 1 µM [1]: 20 µL/min/mg
Drug metabolism [4]: < 100 pmol/mg/h

CC(C)c1ccc([C@](O)(c2cccc(-c3noc(C4(O)CCC4)n3)c2)C2(C)CN(C)C2)cc1
microsomal CLint at […], 1 µM [1]: 35 µL/min/mg

CC(C)c1ccc([C@](O)(c2cncc(N3CC[C@@H](O)C3)c2)C2(C)CN(C)C2)cc1
Drug metabolism [4]: 541 pmol/mg/h

CC(C)c1ccc([C@](O)(c2cnnc(N3CC4(CC4)CC3=O)c2)C2(C)CN(C)C2)cc1
microsomal CLint at […], 1 µM [1]: < 10 µL/min/mg
Drug metabolism [4]: < 100 pmol/mg/h

CN1CC(C(O)(c2ccccc2)c2ccc(OC(F)(F)F)cc2)C1 (stereo unspecified)
IC50 [2]: 9.29 µM
IC50 [3]: 0.52 µM

CC(C)c1ccc([C@](O)(c2cncc(N3CCOCC3)c2)C2(C)CN(C)C2)cc1
microsomal CLint at […], 1 µM [1]: 138 µL/min/mg
Drug metabolism [4]: 1021 pmol/mg/h

CN1CC(C)(C(O)(c2ccc(OC(F)(F)F)cc2)c2cnnc(N3CCCC3)c2)C1 (racemic)
IC50 at 72 h [5]: > 25 µM

CC(C)COc1cccc(C(O)(c2ccc(OC(F)(F)F)cc2)C2(C)CN(C)C2)c1 (racemic)
IC50 at 72 h [5]: 10 µM

CN1CC(C)(C(O)(c2ccc(OC(F)(F)F)cc2)c2cccc(N3CCCC3)c2)C1 (racemic)
IC50 at 72 h [5]: 5 µM

COc1cccc(C(O)(c2ccc(OC(F)(F)F)cc2)C2(C)CN(C)C2)c1 (racemic)
IC50 at 72 h [5]: > 25 µM
IC50 [3]: 0.22 µM

COc1cncc(C(O)(c2ccc(OC(F)(F)F)cc2)C2(C)CN(C)C2)c1 (racemic)
IC50 at 72 h [5]: > 25 µM

CN1CC(C#N)(C(O)(c2ccc(OC(F)(F)F)cc2)c2cccc(Cl)c2)C1 (racemic)
IC50 [2]: 0.763 µM
pKa [6]: 6.4

CN1CC(F)(C(O)(c2ccc(OC(F)(F)F)cc2)c2cccc(Cl)c2)C1 (racemic)
logD [7]: > 4.1
IC50 [3]: 0.19 µM
pKa [6]: 7.9

CN1CC(CO)(C(O)(c2ccc(OC(F)(F)F)cc2)c2cccc(Cl)c2)C1 (racemic)
IC50 [2]: 3.52 µM
logD [7]: 2.1
IC50 [3]: 0.56 µM
pKa [6]: 9.1

CN1CC(C)(C(O)(c2ccc(OC(F)(F)F)cc2)c2ccnc(N3CCCC3)c2)C1 (racemic)
IC50 at 72 h [5]: 9.2 µM

CN1CC(O)(C(O)(c2ccc(OC(F)(F)F)cc2)c2cccc(Cl)c2)C1 (racemic)
IC50 [2]: 2.06 µM
logD [7]: 2.7
IC50 [3]: 1.9 µM
pKa [6]: 8.8

CC(C)c1ccc(C(O)(c2cccc(N3CCCC3)n2)C2(C)CN(C)C2)cc1 (racemic)
IC50 [2]: 1.21 µM

CN1CC(C)(C(O)(c2ccc(OC(F)(F)F)cc2)c2ccccc2Cl)C1 (racemic)
IC50 [2]: 8.8 µM

CN1CC(C)(C(O)(c2ccc(Cl)cc2)c2ccc(OC(F)(F)F)cc2)C1 (racemic)
IC50 at 72 h [5]: 9.4 µM

CN1CC(C(N)=O)(C(O)(c2ccc(OC(F)(F)F)cc2)c2cccc(Cl)c2)C1 (racemic)
IC50 [2]: 1.66 µM
IC50 [3]: 3.3 µM
pKa [6]: 8.1

CCOc1cncc(C(O)(c2ccc(OC(F)(F)F)cc2)C2(C)CN(C)C2)c1 (racemic)
IC50 at 72 h [5]: > 25 µM
logD [7]: 1.9
Activity [8]: Non-Toxic

CC(C)c1ccc(C(O)(c2cccc(-c3nc(C4CCOCC4)no3)c2)C2(C)CN(C)C2)cc1 (single isomer, unassigned)
microsomal CLint at […], 1 µM [1]: 68 µL/min/mg
